We go through 22 compounds from patent publication US20240059703A1 (AMGEN INC., priority 2021, published 2024).

The IC50 is the midpoint of a concentration-inhibition curve.

For test [1], the system named is MIA PaCa-2 (human pancreatic carcinoma) cells. Nature of the test: Cell Viability Assay (CellTiter-Glo), MIA PaCa-2. Type of test: cell-based. As to the method: Serially-diluted compound or DMSO was added to the cells, and plates were incubated at 37° C., 5% CO2 for 72 h. Cell viability was measured using a CellTiter-Glo® Luminescent Cell Viability Assay kit (Promega) according to the manufacturer's protocol. The luminescence signal of treated samples was normalized to DMSO control, and data were analyzed using a 4-parameter logistic model to calculate IC50 values.

Test [2] concerns A549 (human lung carcinoma) cells. Nature of the test: Cell Viability Assay (CellTiter-Glo), A549. Type of test: cell-based. The method, boiled down: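 MIA PaCa-2 or A549 cells in RPMI 1640 with 10% FBS were seeded at 1.67E+04 cells/mL and incubated overnight. Serially diluted compound was then added for 72 h at 37° C, 5% CO2. Viability read by CellTiter-Glo luminescence, normalized to DMSO, with IC50 from a 4-parameter logistic fit.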
On the technique in general: In ATP-based viability assays light output follows the ATP content of the culture.

Another test deals with KRAS G12C (Homo sapiens (Human), UniProt P01116, C118A/G12C). Put plainly: 2 h coupled exchange assay. Type of test: biochemical. Conditions: Avg 2 h Coupled exchange IC50, 2 h compound pre-incubation, SOS-mediated nucleotide exchange. As to the method: The term “2 h coupled exchange assay” or “20 h coupled exchange assay” as used herein refers to the assay described in the Section entitled “BIOLOGICAL EVALUATION.”

Bounds are passed on as bounds.

Sequence of KRAS G12C (P01116 other isoform, or with tags, fused parts or gaps G12C/C118A): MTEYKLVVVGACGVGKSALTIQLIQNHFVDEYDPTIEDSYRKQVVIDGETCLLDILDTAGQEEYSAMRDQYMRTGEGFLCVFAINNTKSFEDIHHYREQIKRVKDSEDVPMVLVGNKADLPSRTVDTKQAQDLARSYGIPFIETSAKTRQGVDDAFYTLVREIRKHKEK

As to `C=CC(=O)N1CC2(CCN(c3nc4c(c(-c5c(C)ccc6cnn(C)c56)c3C#N)CC(C)(C)C4)C2)C1` (single isomer, unassigned) [Example 13-18, (P)-4-(1,6-dimethyl-1H-indazol-7-yl)-6,6-dimethyl-2-(2-(2-propenoyl)-2,6-diazaspiro[3.4]octan-6-yl)-6,7-dihydro-5H-cyclopenta[b]pyridine-3-carbonitrile], the concentration for half-maximal inhibition (IC50) in test [1] (Homo sapiens, MIA PaCa-2, 72 h) was 180 nM; in test [2] (Homo sapiens, A549, 72 h), over 5000 nM; against KRAS G12C, 26 nM.
The matching figures for `C=CC(=O)N1CC2(CCN(c3nc4c(c(-c5cc(O)cc6ccccc56)c3C#N)COC(C)(C)C4)C2)C1` (single isomer, unassigned) [Example 13-43, (P)-4-(3-hydroxy-1-naphthalenyl)-7,7-dimethyl-2-(2-(2-propenoyl)-2,6-diazaspiro[3.4]octan-6-yl)-7,8-dihydro-5H-pyrano[4,3-b]pyridine-3-carbonitrile]: 143 nM, over 5000 nM and 16 nM.
The matching figures for `C=CC(=O)N1CC2(CCN(c3nc4c(c(-c5c(C)ccc6cnn(C)c56)c3C#N)COC(C)(C)C4)C2)C1` (single isomer, unassigned) [Example 13-60, (P)-4-(1,6-dimethyl-1H-indazol-7-yl)-7,7-dimethyl-2-(2-(2-propenoyl)-2,6-diazaspiro[3.4]octan-6-yl)-7,8-dihydro-5H-pyrano[4,3-b]pyridine-3-carbonitrile]: 146 nM, over 5000 nM and 63 nM.
As for `C=CC(=O)N1CC2(CCN(c3nc4c(c(-c5cc(O)cc6ccccc56)c3C#N)CC(C)(C)C4)C2)C1` (single isomer, unassigned) [Example 13-69, (P)-4-(3-hydroxy-1-naphthalenyl)-6,6-dimethyl-2-(2-(2-propenoyl)-2,6-diazaspiro[3.4]octan-6-yl)-6,7-dihydro-5H-cyclopenta[b]pyridine-3-carbonitrile], the IC50 stood at 217 nM in test [1] (Homo sapiens, MIA PaCa-2, 72 h); 3230 nM in test [2] (Homo sapiens, A549, 72 h); 27 nM against KRAS G12C.
With `C=CC(=O)N1CC2(CCN(c3nc4c(c(-c5cc(O)c(F)c6ccccc56)c3C#N)CC[C@@H]3C[C@H]43)C2)C1` (single isomer, unassigned) [Example 13-74], the IC50 in test [1] (72 h) is over 5000 nM; in test [2] (Homo sapiens, A549, 72 h), over 5000 nM; against KRAS G12C, 76 nM.
`C=CC(=O)N1CC2(CCN(c3nc4c(c(-c5cc(O)c(F)c6ccccc56)c3C#N)CC[C@@H]3C[C@H]43)C2)C1` (single isomer, unassigned) [Example 13-76]: the IC50 is 1190 nM in test [1] (72 h), 3260 nM in test [2] (72 h) and 40 nM against KRAS G12C.
As to `C=CC(=O)N1CC2(CCN(c3nc4c(c(-c5cc(O)c(F)c6ccccc56)c3C#N)COC(C)(C)C4)C2)C1` (single isomer, unassigned) [Example 13-78, (P)-4-(4-fluoro-3-hydroxy-1-naphthalenyl)-7,7-dimethyl-2-(2-(2-propenoyl)-2,6-diazaspiro[3.4]octan-6-yl)-7,8-dihydro-5H-pyrano[4,3-b]pyridine-3-carbonitrile], the IC50 in test [1] (Homo sapiens, MIA PaCa-2, 72 h) was 842 nM; in test [2] (Homo sapiens, A549, 72 h) it was over 5000 nM; at KRAS G12C, 76 nM.
The matching figures for `C=CC(=O)N1CC2(CCN(c3nc4c(c(-c5c(C)c(C)cc6cnn(C)c56)c3C#N)COC(C)(C)C4)C2)C1` (single isomer, unassigned) [Example 13-92, (P)-7,7-dimethyl-2-(2-(2-propenoyl)-2,6-diazaspiro[3.4]octan-6-yl)-4-(1,5,6-trimethyl-1H-indazol-7-yl)-7,8-dihydro-5H-pyrano[4,3-b]pyridine-3-carbonitrile]: 9 nM, over 5000 nM and 13 nM.
The matching figures for `C=CC(=O)N1CC2(CCN(c3nc4c(c(-c5c(C)ccc6cnn(C)c56)c3C#N)C[C@H]3C[C@@H]4C3(C)C)C2)C1` (single isomer, unassigned) [Example 13-106]: 831 nM, over 5000 nM and 78 nM.
The matching figures for `C=CC(=O)N1CC2(CCN(c3nc4c(c(-c5c(C)ccc6[nH]ncc56)c3C#N)C[C@H]3C[C@@H]4C3(C)C)C2)C1` (single isomer, unassigned) [Example 13-115]: 9 nM, over 5000 nM and 12 nM.
Take `C=CC(=O)N1CC2(CCN(c3nc4c(c(-c5c(C)ccc6cnn(C)c56)c3C#N)C[C@H]3C[C@@H]4C3)C2)C1` (single isomer, unassigned) [Example 13-118]: the concentration for half-maximal inhibition (IC50) in test [1] (Homo sapiens, MIA PaCa-2, 72 h) was 279 nM; in test [2] (Homo sapiens, A549, 72 h), over 5000 nM; on KRAS G12C it was 72 nM.
Take `C=CC(=O)N1CC2(CCN(c3nc4c(c(-c5c(C)ccc6cnn(C)c56)c3C#N)CO[C@@H](C3CC3)C4)C2)C1` (single isomer, unassigned) [Example 13-122]: the IC50 in test [1] (Homo sapiens, MIA PaCa-2, 72 h) is 1080 nM; in test [2] (Homo sapiens, A549, 72 h), over 5000 nM; against KRAS G12C, 299 nM.
The matching figures for `C=CC(=O)N1CC2(CCN(c3nc4c(c(-c5cc(O)ccc5C)c3C#N)C[C@H]3C[C@@H]4C3)C2)C1` (single isomer, unassigned) [Example 13-126]: over 5000 nM, over 5000 nM and 29 nM.
The matching figures for `C=CC(=O)N1CC2(CCN(c3nc4c(c(-c5cc(O)ccc5C)c3C#N)COC(C)(C)C4)C2)C1` (single isomer, unassigned) [Example 13-128, 4-(5-hydroxy-2-methylphenyl)-7,7-dimethyl-2-(2-(2-propenoyl)-2,6-diazaspiro[3.4]octan-6-yl)-7,8-dihydro-5H-pyrano[4,3-b]pyridine-3-carbonitrile]: over 5000 nM, over 5000 nM and 91 nM.
The matching figures for `C=CC(=O)N1CC2(CCN(c3nc4c(c(-c5cc(O)cc6ccccc56)c3C#N)C[C@H]3C[C@@H]4C3(C)C)C2)C1` (single isomer, unassigned) [Example 13-129]: 21 nM, over 5000 nM and 13 nM.
For `C=CC(=O)N1CC2(CCN(c3nc4c(c(-c5c(C)ccc6cnn(C)c56)c3C#N)[C@H]3C[C@@H](C4)C3)C2)C1` (single isomer, unassigned) [Example 13-133], the IC50 was 200 nM in test [1] (Homo sapiens, MIA PaCa-2, 72 h); over 5000 nM in test [2] (Homo sapiens, A549, 72 h); 64 nM on KRAS G12C.
Regarding `C=CC(=O)N1CC2(CCN(c3nc4c(c(-c5c(C)ccc6cnn(C)c56)c3C#N)CC[C@@H]3C[C@H]43)C2)C1` (single isomer, unassigned) [Example 13-136, (6a,7a)-4-(1,6-dimethyl-1H-indazol-7-yl)-2-(2-(2-propenoyl)-2,6-diazaspiro[3.4]octan-6-yl)-6,6a,7,7a-tetrahydro-5H-cyclopropa[h]quinoline-3-carbonitrile], the concentration for half-maximal inhibition (IC50) in test [1] (Homo sapiens, MIA PaCa-2, 72 h) is 401 nM; in test [2] (Homo sapiens, A549, 72 h), over 5000 nM; at KRAS G12C, 78 nM.
The matching figures for `C=CC(=O)N1CC2(CCN(c3nc4c(c(-c5c(C)ccc6cnn(C)c56)c3C#N)CC[C@H]3C[C@@H]43)C2)C1` (single isomer, unassigned) [Example 13-137, (6a,7a)-4-(1,6-dimethyl-1H-indazol-7-yl)-2-(2-(2-propenoyl)-2,6-diazaspiro[3.4]octan-6-yl)-6,6a,7,7a-tetrahydro-5H-cyclopropa[h]quinoline-3-carbonitrile]: 468 nM, over 5000 nM and 72 nM.
Turning to `C=CC(=O)N1CC2(CCN(c3nc4c(c(-c5c(C)ccc6cnn(C)c56)c3C#N)CCC(C)(C)C4)C2)C1` (single isomer, unassigned) [Example 13-145, 4-(1,6-dimethyl-1H-indazol-7-yl)-7,7-dimethyl-2-(2-(2-propenoyl)-2,6-diazaspiro[3.4]octan-6-yl)-5,6,7,8-tetrahydro-3-quinolinecarbonitrile], the concentration for half-maximal inhibition (IC50) in test [1] (72 h) was 208 nM; in test [2] (Homo sapiens, A549, 72 h) it was over 5000 nM; against KRAS G12C, 31 nM.
`C=CC(=O)N1CC2(CCN(c3nc4c(c(-c5c(C)ccc6cnn(C)c56)c3C#N)CCC(C)(C)C4)C2)C1` (single isomer, unassigned) [Example 13-150, 4-(1,6-dimethyl-1H-indazol-7-yl)-7,7-dimethyl-2-(2-(2-propenoyl)-2,6-diazaspiro[3.4]octan-6-yl)-5,6,7,8-tetrahydro-3-quinolinecarbonitrile]: the concentration for half-maximal inhibition (IC50) in test [1] (72 h) was found to be 4020 nM; in test [2] (72 h), 6730 nM; against KRAS G12C it was 2900 nM.
For `C=CC(=O)N1CC2(CCN(c3nc4c(c(-c5c(N)c(Cl)cc(Cl)c5F)c3C#N)COC(C)(C)C4)C2)C1` (single isomer, unassigned) [Example 13-155, 4-(2-amino-3,5-dichloro-6-fluorophenyl)-7,7-dimethyl-2-(2-(2-propenoyl)-2,6-diazaspiro[3.4]octan-6-yl)-7,8-dihydro-5H-pyrano[4,3-b]pyridine-3-carbonitrile], the concentration for half-maximal inhibition (IC50) was 93 nM in test [1] (72 h); over 5000 nM in test [2] (Homo sapiens, A549, 72 h); 111 nM on KRAS G12C.
In the case of `C=CC(=O)N1CC2(CCN(c3nc4c(c(-c5c(N)c(Cl)cc(Cl)c5F)c3C#N)COC(C)(C)C4)C2)C1` (single isomer, unassigned) [Example 13-156, 4-(2-amino-3,5-dichloro-6-fluorophenyl)-7,7-dimethyl-2-(2-(2-propenoyl)-2,6-diazaspiro[3.4]octan-6-yl)-7,8-dihydro-5H-pyrano[4,3-b]pyridine-3-carbonitrile], the figures for the IC50 (in test [1] (72 h); in test [2] (72 h); at KRAS G12C) were 5920 nM, 8160 nM and 140000 nM, respectively.
